From ChEMBL document CHEMBL4190235, “Polysubstituted 2-aminoimidazoles as anti-biofilm and antiproliferative agents: Discovery of potent lead” (Eur J Med Chem, 2017)

Tests used:
Pseudomonas aeruginosa [1] = experiment: Antibiofilm activity against Pseudomonas aeruginosa PA14 after 24 hrs by crystal violet staining based method; assay type: functional
Pseudomonas aeruginosa [2] = experiment: Inhibition of planktonic growth of Pseudomonas aeruginosa PA14 cells; assay type: organism-based
Salmonella typhimurium [3] = experiment: Antibiofilm activity against Salmonella typhimurium ATCC 14028 after 24 hrs by crystal violet staining based method; assay type: functional, Salmonella enterica subsp. enterica serovar Typhimurium
Salmonella typhimurium [4] = experiment: Inhibition of planktonic growth of Salmonella typhimurium ATCC 14028; assay type: organism-based, Salmonella enterica subsp. enterica serovar Typhimurium; settings: Salmonella enterica
Staphylococcus aureus [5] = experiment: Antibiofilm activity against Staphylococcus aureus SH1000 after 48 hrs by crystal violet staining based method; assay type: functional
Staphylococcus aureus [6] = experiment: Inhibition of planktonic growth of Staphylococcus aureus SH1000; assay type: organism-based
A-375 = experiment: Antiproliferative activity against human A375 cells after 48 hrs by MTT assay; assay type: functional, cell-based; settings: A-375, 48 h
MIA PaCa-2 = experiment: Antiproliferative activity against human MIAPaCa2 cells after 48 hrs by MTT assay; assay type: functional, cell-based; settings: MIA PaCa-2, 48 h

Structure (SMILES) | IC50 (A-375) [µM] | IC50 (MIA PaCa-2) [µM] | MBIC50 (Pseudomonas aeruginosa [1]) [µM] | IC50 (Pseudomonas aeruginosa [2]) [µM] | MBIC50 (Salmonella typhimurium [3]) [µM] | IC50 (Salmonella typhimurium [4]) [µM] | MBIC50 (Staphylococcus aureus [5]) [µM] | IC50 (Staphylococcus aureus [6]) [µM]
CC(C)(C)c1ccc(Cc2nc(N)n(CC(=O)NCc3ccccc3)c2-c2ccccc2Br)cc1 |  |  | >400 | > 400 | >400 | > 400 | >400 | > 400
O=C(N/N=C/c1ccc([N+](=O)[O-])o1)c1ccc(O)cc1 [NIFUROXAZIDE] |  |  | >400 | > 400 | >400 | > 400 | >400 | > 400
O=C(OC[C@H]1O[C@@H](OC(=O)c2cc(O)c(O)c(OC(=O)c3cc(O)c(O)c(O)c3)c2)[C@H](OC(=O)c2cc(O)c(O)c(OC(=O)c3cc(O)c(O)c(O)c3)c2)[C@@H](OC(=O)c2cc(O)c(O)c(OC(=O)c3cc(O)c(O)c(O)c3)c2)[C@@H]1OC(=O)c1cc(O)c(O)c(OC(=O)c2cc(O)c(O)c(O)c2)c1)c1cc(O)c(O)c(OC(=O)c2cc(O)c(O)c(O)c2)c1 [TANNIC ACID] |  |  | 27.7 | > 400 | 18.8 | > 400 | 115.3 | > 400
Nc1nc(CC2CCCCC2)c(-c2ccccc2Br)n1CC(=O)Nc1ccccc1 | 40.6 | 89 | >400 | > 400 | >400 | > 400 | >400 | > 400
Cc1ccc(NC(=O)Cn2c(N)nc(CC3CCCC3)c2-c2ccccc2Br)cc1 | 47.8 | 80.5 | >400 | > 400 | >400 | > 400 | 289.6 | > 400
COc1ccc(NC(=O)Cn2c(N)nc(Cc3ccc(C(C)(C)C)cc3)c2-c2ccccc2Br)cc1 |  |  | >400 | > 400 | 231.2 | > 400 | 11.5 | 37.2
Cc1ccc(NC(=O)Cn2c(N)nc(CC3CCCCC3)c2-c2ccccc2Br)cc1 | 17.5 | 48.8 | >400 | > 400 | >400 | > 400 | >400 | > 400
O=c1cc(-c2ccccc2)oc2cc(O)c(O)c(O)c12 [BAICALEIN] |  |  | >400 | > 400 | >400 | > 400 | 77.5 | > 400
Nc1nc(Cc2ccccc2)c(-c2ccccc2Br)n1CC(=O)NCc1ccccc1 |  |  | 382.1 | 55.7 | 38.8 | > 400 | 41.5 | 55.7
Nc1nc(CC2CCCC2)c(-c2ccccc2Br)n1CC(=O)Nc1ccccc1 | 24.3 | 61.4 | >400 | > 400 | >400 | > 400 | >400 | > 400
CCCCCc1nc(N)n(CC(=O)Nc2ccccc2)c1-c1ccccc1Br | 26.4 | 40.6 | >400 | > 400 | >400 | > 400 | 21.3 | > 400
CC(C)(C)c1ccc(Cc2nc(N)n(CC(=O)Nc3ccc([N+](=O)[O-])cc3)c2-c2ccccc2Br)cc1 |  |  | >400 | > 400 | >400 | > 400 | >400 | > 400

More lines, main results first:

IC50 (A-375) [µM] | IC50 (MIA PaCa-2) [µM] | Structure (SMILES) | MBIC50 (Pseudomonas aeruginosa [1]) [µM] | IC50 (Pseudomonas aeruginosa [2]) [µM] | MBIC50 (Salmonella typhimurium [3]) [µM] | IC50 (Salmonella typhimurium [4]) [µM] | MBIC50 (Staphylococcus aureus [5]) [µM] | IC50 (Staphylococcus aureus [6]) [µM]
2.8 | 4.9 | CC(C)(C)c1ccc(Cc2nc(N)n(CC(=O)Nc3ccccc3)c2-c2ccccc2Br)cc1 | 124.3 | > 400 | 12.5 | > 400 | 6.5 | 7.8
5.7 | 8.6 | CCCCCCc1nc(N)n(CC(=O)Nc2ccccc2)c1-c1ccccc1Br | 50.7 | 119 | 35.7 | > 400 | 6.6 | 16.3
2.4 | 5.2 | COc1ccc(Cc2nc(N)n(CC(=O)Nc3ccc(C)cc3)c2-c2ccccc2Br)cc1 | 8.9 | 24.6 | 6.3 | 50.5 | 8.2 | 16.1
1.4 | 3.4 | Cc1ccc(NC(=O)Cn2c(N)nc(Cc3ccc(C(C)(C)C)cc3)c2-c2ccccc2Br)cc1 | >400 | > 400 | 17.6 | > 400 | 3.9 | 7.9
0.7 | 2.5 | CC(=O)O[C@H]1C(=O)[C@@]2(C)[C@H]([C@H](OC(=O)c3ccccc3)[C@]3(O)C[C@H](OC(=O)[C@H](O)[C@@H](NC(=O)c4ccccc4)c4ccccc4)C(C)=C1C3(C)C)[C@]1(OC(C)=O)CO[C@@H]1C[C@@H]2O [PACLITAXEL] |  |  |  |  |  | 
2.6 | 3.5 | Cc1ccc(NC(=O)Cn2c(N)nc(CC3CC3)c2-c2ccccc2Br)cc1 | 16 | 23.6 | 21.3 | 24.5 | 21.9 | 30.6
9.2 | 7.9 | CCCCCCCc1nc(N)n(CC(=O)Nc2ccccc2)c1-c1ccccc1Br | 221.9 | > 400 | 114.8 | > 400 | 18.1 | 70.8
5.1 | 6.5 | CCCCCCc1nc(N)n(CC(=O)Nc2ccc(C)cc2)c1-c1ccccc1Br | 29.5 | 49.6 | 21.8 | > 400 | 12.6 | 23.1
5.2 | 7 | CCCCCCCc1nc(N)n(CC(=O)Nc2ccc(C)cc2)c1-c1ccccc1Br | 291.1 | 190 | 37.7 | > 400 | 14.4 | 22.8
4.3 | 5.6 | CCCCCc1nc(N)n(CC(=O)Nc2ccc(C)cc2)c1-c1ccccc1Br | 42.4 | 76 | 31.5 | 200 | 29.8 | 33.2
5.2 | 5.7 | Nc1nc(Cc2ccccc2)c(-c2ccccc2Br)n1CC(=O)Nc1ccccc1 | >400 | > 400 | >400 | > 400 | >400 | > 400
2.5 | 9.2 | Cc1ccc(Cc2nc(N)n(CC(=O)Nc3ccccc3)c2-c2ccccc2Br)cc1 | >400 | > 400 | >400 | > 400 | >400 | > 400
2 | 3.8 | Cc1ccc(NC(=O)Cn2c(N)nc(Cc3ccccc3)c2-c2ccccc2Br)cc1 | 16.8 | 13.8 | 6 | 29.8 | 7.6 | 12.3
